The results in this text go back to patent publication US20150344843A1, “DETERGENT TREATED BIOLOGICAL TISSUE WITH LOW RESIDUAL DETERGENT AND METHOD OF PRODUCING THE SAME” (Bacterin International, Inc., priority 2014, published 2015).

SMILES strings stand for the structures.

This data set has as its system L-929 mouse fibroblast cells. Put plainly: MEM endpoint dilution assay for liquids (cytotoxic threshold of SDS). It counts as cell-based. The arrangement: key to Cytotoxicity Score: 0: Discrete intracytoplasmic granules, no cell lysis, no reduction of cell growth; 1: Not more than 20% of the cells are round, loosely attached, and without intracytoplasmic granules, or show changes in morphology; occasional lysed cells are present; only slight growth inhibition observable; 2: Not more than 50% of the cells are round, devoid of intracytoplasmic granules, no extensive cell lysis; not more than 50% growth inhibition observable; 3: Not more than 70% of the cell layers contain rounded cells or are lysed; cell layers not completely destroyed, but more than 50% growth inhibition observable; 4: Nearly complete or complete destruction of the cell layers. Conditions: for Cytotoxicity Score: about 24 hours; for Pass/Fail: scores 0-2 Pass, 3-4 Fail per Table 1. The method, then:
To determine the cytotoxic threshold of SDS, an MEM endpoint dilution assay for liquids using L-929 mouse fibroblast cells was performed. Briefly, solutions of Eagle's minimum essential medium with about 5% fetal bovine serum were created with various concentrations of SDS. One mL of the SDS containing medium was placed in a disposable tissue culture labware and a monoloyer of L-929 mouse fibroblasts was placed on top of the media. The cells were incubated for about 24 hours at about 37° C. in a humidified atmosphere of about 5% CO2 in air. The mouse fibroblasts were then […] examined using the semi-quantitative scale defined in Table 1.
Appropriate positive and negative controls were assessed to ensure the validity of the assay.

The mark [1] stands for this setting: SDS concentration 4 μg/mL (approximate).
[2] abbreviates: SDS concentration 8 μg/mL (approximate).
The mark [3] stands for this setting: SDS concentration 16 μg/mL (approximate).
Where [4] appears, read: SDS concentration 17 μg/mL (approximate).
Setting [5] is: SDS concentration 20 μg/mL (approximate).
Setting [6] is: SDS concentration 23 μg/mL (approximate).
The mark [7] stands for this setting: SDS concentration 26 μg/mL (approximate).
[8] abbreviates: SDS concentration 29 μg/mL (approximate).
[9] abbreviates: SDS concentration 32 μg/mL (approximate).

For `CCCCCCCCCCCCOS(=O)(=O)[O-].[Na+]` [SDS, sodium dodecyl sulfate], the “Cytotoxicity Score” value was 0 under setting [1]; 0 under setting [2]; 0 under setting [3]; 0 under setting [4]; 0 under setting [5]; 1 under setting [6]. In addition, the “Cytotoxicity Score” value reads like this: under setting [7], 4; under setting [8], 4; under setting [9], 4. In addition, the Pass/Fail result is “Pass” under setting [1]; “Pass” under setting [2]; “Pass” under setting [3]; “Pass” under setting [4]; “Pass” under setting [5]; “Pass” under setting [6]. Besides, the Pass/Fail result is given as “Fail” under setting [7], “Fail” under setting [8] and “Fail” under setting [9]. The “limit of toxicity for SDS, corresponding tissue content” value (converted from μg/mL limit) was 86-98 ng of SDS/mg of tissue. The “SDS content for tissue to be non-cytotoxic” value (threshold from in vitro limit) is “less than 86 ng of SDS/mg of tissue”.
